The structures appear in SMILES notation.

In EP0428854A2, “Process for the preparation of 4-(4-isobutylphenyl)-butyraldehyde” (BOEHRINGER INGELHEIM KG, priority 1989, dated 1991) one finds wirkungsstärker data, which are given here for 1 compound.

In the assay the target is T1, PAF-Rezeptor (Homo sapiens, UniProt P25105).
T1 construct: endogenous in cells; host or cells: intact human platelets from blood of healthy donors, purified on Sepharose CL-2B
The assay is described as follows: [3H]PAF receptor binding on vital human platelets (competitive displacement of the radioligand). To be noted: potency of the (-)-enantiomer relative to the other enantiomer, [³H]PAF binding. From the text: Überraschenderweise wurde gefunden, daß das (-)-Enantiomere 40-mal wirkungsstärker ist. Die pharmakologische Wirkung wurde anhand des nachfolgenden Experiments bestimmt: [³H]PAF-Rezeptor-Bindung an vitalen humanen Blutplättchen
Bestimmt wird die konkurrierende Wechselwirkung von Prüfsubstanzen (hier PAF-Antagonisten) mit der bekannten Wechselwirkung des Radioliganden [³H]PAF zum gleichen Rezeptor. Die Bindungsstudien wurden an vitalem menschlichen Thrombozyten vorgenommen. Blutproben von gesunden Spendern wurden mit ACD-Puffer verdünnt und zentrifugiert (15 Min., 160 x g). Das blättchenreiche Plasma wird durch Chromatographie an Sepharose CL-2B [Zum Eluieren: HEPES-Puffer, pH 7,4 20°C] gereinigt.
Definierte Mengen [z.B. 800 µl] der Blättchensuspension wurden 90 Min. bei Raumtemperatur inkubiert, d.h. vermischt mit: • a) einer […] [³H]PAF-Lösung, verdünnt mit Puffer. • b) mit einer 30 pmolaren [³H] PAF-Lösung, die gleichzeitig eine µmolare (nicht markierte) PAF-Lösung enthält, • c) mit der 30 pmolaren [³H]PAF-Lösung und den Lösungen der Prüfsubstanzen (unterschiedliche Konzentrationen) • a) Dient zur Ermittlung der totalen Bindung, • b) dient zur Ermittlung der unspezifischen Bindung.
Die Reaktion wurde durch Vakuumfiltration abgestoppt. Die Filter mit den Blutplättchen werden mit Szintilationsflüssigkeit versetzt und die verbliebene Radioaktivität in einem Counter gemessen. […]

T1 sequence (P25105 whole entry): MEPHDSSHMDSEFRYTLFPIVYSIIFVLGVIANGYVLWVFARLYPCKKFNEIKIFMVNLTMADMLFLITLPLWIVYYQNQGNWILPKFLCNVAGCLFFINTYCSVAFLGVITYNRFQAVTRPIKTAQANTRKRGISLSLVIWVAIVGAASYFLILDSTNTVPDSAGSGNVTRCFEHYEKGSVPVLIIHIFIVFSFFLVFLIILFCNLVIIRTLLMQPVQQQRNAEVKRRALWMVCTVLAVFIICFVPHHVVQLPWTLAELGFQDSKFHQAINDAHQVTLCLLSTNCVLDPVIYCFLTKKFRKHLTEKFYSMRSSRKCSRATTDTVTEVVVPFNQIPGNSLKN

For `Cc1nnc2n1-c1sc(CCc3ccc(CC(C)C)cc3)cc1C(c1ccccc1Cl)=NC2C` (single isomer, unassigned; (-)) [(-)Enantiomer, (-)-4-(2-Chlorphenyl)-2-[2-(4-isobutylphenyl)ethyl]-6,9-dimethyl-6H-thieno[3,2-f][1,2,4]triazolo[4,3-a][1,4]diazepin], the wirkungsstärker is reported as 40 mal.
